# Values of other authors as cited in patent US20040142049A1, “Compositions having tnf production inhibitory effect and tnf production inhibitors” (priority 2001, published 2004).
# Tested on: TNF
# Conditions: background art, prior publications
compound,measurement,value
COc1cc(/C=C/C(=O)CC(=O)/C=C/c2ccc(O)c(OC)c2)ccc1O [curcumin],TNF production inhibitory effect (in words),has a TNF production inhibitory effect
